# Assay results taken from patent US12655116B2, “Substituted isophthalic acid diamides” (Bayer Aktiengesellschaft, priority 2020, dated 2026).
# How the values were obtained:
# [1] = test system: PHBPU; experiment: Post-emergence herbicidal action against PHBPU; format: in vivo, Pharbitis purpurea
# In short: (§1)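 Herbicidal effect was scored visually in percent after about 3 weeks in the greenhouse. Plants had been raised in sandy loam and treated post-emergence at the one-leaf stage with formulated compound at 600 to 800 l/ha water plus 0.2% wetting agent.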
# [2] = test system: AMARE; experiment: Pre-emergence herbicidal action against AMARE; format: in vivo, Amaranthus retroflexus
# In short: (§2)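 Herbicidal effect was assessed 3 weeks after treatment by visual comparison with untreated controls, 100% denoting dead plants. Aqueous WP or EC preparations had been applied at 600 to 800 l/ha with 0.2% wetting agent to the soil covering freshly sown seeds.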
# [3] = test system: VIOTR; experiment: Post-emergence herbicidal action against VIOTR; format: in vivo, Viola tricolor
# In short: as §1
# [4] = test system: PHBPU; experiment: Pre-emergence herbicidal action against PHBPU; format: in vivo, Pharbitis purpurea
# In short: as §2
# [5] = test system: AVEFA; experiment: Pre-emergence herbicidal action against AVEFA; format: in vivo, Avena fatua; conditions: for Pre-emergence action against AVEFA in %: 80 g/ha
# In short: as §2
# [6] = test system: LOLRI; experiment: Pre-emergence herbicidal action against LOLRI; format: in vivo, Lolium rigidum; conditions: 80 g/ha
# In short: as §2
# [7] = test system: ECHCG; experiment: Post-emergence herbicidal action against ECHCG; format: in vivo, Echinochloa crus-galli
# In short: as §1
# [8] = test system: DIGSA; experiment: Pre-emergence herbicidal action against DIGSA; format: in vivo, Digitaria sanguinalis
# In short: as §2
# [9] = test system: VIOTR; experiment: Pre-emergence herbicidal action against VIOTR; format: in vivo, Viola tricolor
# In short: as §2
# [10] = test system: VERPE; experiment: Pre-emergence herbicidal action against VERPE; format: in vivo, Veronica persica; conditions: dosage 80 g/ha
# In short: as §2
# [11] = test system: ALOMY; experiment: Pre-emergence herbicidal action against ALOMY; format: in vivo, Alopecurus myosuroides; conditions: for Pre-emergence action against ALOMY (herbicidal activity): 80 g/ha, scored visually after 3 weeks vs untreated controls (100% = plants have died, 0% = like control plants)
# In short: as §2
# [12] = test system: ECHCG; experiment: Pre-emergence herbicidal action against ECHCG; format: in vivo, Echinochloa crus-galli
# In short: as §2
# [13] = test system: SETVI; experiment: Post-emergence herbicidal action against SETVI; format: in vivo, Setaria viridis
# In short: as §1
# [14] = test system: POLCO; experiment: Pre-emergence herbicidal action against POLCO; format: in vivo, Polygonum convolvulus; conditions: dosage 80 g/ha
# In short: as §2
# [15] = test system: DIGSA; experiment: Post-emergence herbicidal action against DIGSA; format: in vivo, Digitaria sanguinalis
# In short: as §1
# [16] = test system: AMARE; experiment: Post-emergence herbicidal action against AMARE; format: in vivo, Amaranthus retroflexus; conditions: 20 g/ha, visual assessment about 3 weeks after treatment, 100% = plants have died, 0% = like control plants
# In short: as §1
# [17] = test system: VERPE; experiment: Post-emergence herbicidal action against VERPE; format: in vivo, Veronica persica
# In short: as §1
# [18] = test system: ABUTH; experiment: Post-emergence herbicidal action against ABUTH; format: in vivo, Abutilon theophrasti; conditions: visual assessment about 3 weeks after treatment vs untreated controls
# In short: as §1
# [19] = test system: MATIN; experiment: Pre-emergence herbicidal action against MATIN; format: in vivo, Matricaria inodora
# In short: as §2
# [20] = test system: ABUTH; experiment: Pre-emergence herbicidal action against ABUTH; format: in vivo, Abutilon theophrasti; conditions: for Pre-emergence action against ABUTH (herbicidal activity): 80 g/ha, scored visually after 3 weeks vs untreated controls (100% = plants have died, 0% = like control plants); for Pre-emergence action against ABUTH (herbicidal activity in percent): dosage 20 g/ha, scored visually after 3 weeks vs untreated controls, 100% = plants have died, 0% = like control plants
# In short: as §2
# [21] = test system: SETVI; experiment: Pre-emergence herbicidal action against SETVI; format: in vivo, Setaria viridis
# In short: as §2
# [22] = test system: MATIN; experiment: Post-emergence herbicidal action against MATIN; format: in vivo, Matricaria inodora; conditions: dosage 20 g/ha
# In short: as §1
# [23] = test system: ALOMY; experiment: Post-emergence herbicidal action against ALOMY; format: in vivo, Alopecurus myosuroides; conditions: visual assessment about 3 weeks after treatment vs untreated controls
# In short: as §1
# [24] = 20 g/ha, scored visually after 3 weeks vs untreated controls, 100% = plants have died, 0% = like control plants
# [25] = 80 g/ha, scored visually after 3 weeks vs untreated controls (100% = plants have died, 0% = like control plants)
# [26] = 20 g/ha, scored visually after 3 weeks, 100% = plants have died, 0% = like control plants
structure (smiles),measurement,setting,value
Cn1nnnc1NC(=O)c1ccc(C(F)(F)F)c(C(=O)NCC2CC2)c1C1CC1 [Example 1-289],Post-emergence action against PHBPU in %,[1]; dosage 5 g/ha,80%
same,Post-emergence action against PHBPU in %,[1]; dosage 20 g/ha,90%
same,Pre-emergence action against AMARE in %,[2]; [24],90%
same,Pre-emergence action against AMARE in %,[2]; [25],100%
same,Post-emergence action against VIOTR in %,[3]; 5 g/ha,80%
same,Post-emergence action against VIOTR in %,[3]; 20 g/ha,90%
same,Pre-emergence action against PHBPU in %,[4]; dosage 80 g/ha,80%
same,Pre-emergence action against AVEFA in %,[5],80%
same,Pre-emergence action against LOLRI in %,[6],80%
same,Post-emergence action against ECHCG in %,[7]; dosage 20 g/ha,80%
same,Pre-emergence action against DIGSA in %,[8]; dosage 20 g/ha,100%
same,Pre-emergence action against DIGSA in %,[8]; dosage 80 g/ha,100%
same,Pre-emergence action against VIOTR in %,[9]; dosage 20 g/ha,100%
same,Pre-emergence action against VIOTR in %,[9]; dosage 80 g/ha,100%
same,Pre-emergence action against VERPE in %,[10],100%
same,Pre-emergence action against ALOMY (herbicidal activity),[11],90%
same,Pre-emergence action against ECHCG in %,[12]; 20 g/ha,80%
same,Pre-emergence action against ECHCG in %,[12]; 80 g/ha,100%
same,Post-emergence action against SETVI in %,[13]; dosage 5 g/ha,80%
same,Post-emergence action against SETVI in %,[13]; dosage 20 g/ha,90%
same,Pre-emergence action against POLCO in %,[14],80%
same,Post-emergence action against DIGSA in %,[15]; 5 g/ha,90%
same,Post-emergence action against DIGSA,[15]; 20 g/ha,90%
same,Post-emergence action at 20 g/ha against AMARE in %,[16],90%
same,Post-emergence action against VERPE in %,[17]; 5 g/ha,80%
same,Post-emergence action against VERPE in %,[17]; 20 g/ha,90%
same,Post-emergence action against ABUTH in %,[18]; dosage 5 g/ha,80%
same,Post-emergence action against ABUTH in %,[18]; dosage 20 g/ha,80%
same,Pre-emergence action against MATIN in %,[19]; dosage 20 g/ha,90%
same,Pre-emergence action against MATIN in %,[19]; dosage 80 g/ha,100%
same,Pre-emergence action against ABUTH (herbicidal activity),[20],100%
same,Pre-emergence action against ABUTH (herbicidal activity in percent),[20],100%
same,Pre-emergence action against SETVI in %,[21]; dosage 80 g/ha,80%
same,Post-emergence action against MATIN in %,[22],80%
CCn1nnnc1NC(=O)c1ccc(C(F)(F)F)c(C(=O)NC2CCC2)c1C [Example 2-42],Post-emergence action against PHBPU in %,[1]; dosage 5 g/ha,90%
same,Post-emergence action against PHBPU in %,[1]; dosage 20 g/ha,90%
same,Pre-emergence action against AMARE in %,[2]; [24],100%
same,Pre-emergence action against AMARE in %,[2]; [25],100%
same,Pre-emergence action against PHBPU in %,[4]; dosage 20 g/ha,80%
same,Pre-emergence action against PHBPU in %,[4]; dosage 80 g/ha,90%
same,Pre-emergence action against AVEFA,[5]; [26],80%
same,Pre-emergence action against AVEFA in %,[5],90%
same,Pre-emergence action against LOLRI in %,[6],80%
same,Post-emergence action against ECHCG in %,[7]; dosage 5 g/ha,90%
same,Post-emergence action against ECHCG in %,[7]; dosage 20 g/ha,100%
same,Pre-emergence action against DIGSA in %,[8]; dosage 20 g/ha,100%
same,Pre-emergence action against DIGSA in %,[8]; dosage 80 g/ha,100%
same,Pre-emergence action against VIOTR in %,[9]; dosage 20 g/ha,100%
same,Pre-emergence action against VIOTR in %,[9]; dosage 80 g/ha,100%
same,Post-emergence action against ALOMY in %,[23]; dosage 5 g/ha,90%
same,Post-emergence action against ALOMY in %,[23]; dosage 20 g/ha,100%
same,Pre-emergence action against VERPE in %,[10],90%
same,Pre-emergence action against ALOMY,[11]; [26],80%
same,Pre-emergence action against ALOMY (herbicidal activity),[11],90%
same,Pre-emergence action against ECHCG in %,[12]; 20 g/ha,90%
same,Pre-emergence action against ECHCG in %,[12]; 80 g/ha,100%
same,Pre-emergence action against POLCO in %,[14],80%
same,Post-emergence action at 20 g/ha against AMARE in %,[16],100%
same,Post-emergence action against VERPE in %,[17]; 20 g/ha,90%
same,Post-emergence action against ABUTH in %,[18]; dosage 5 g/ha,80%
same,Post-emergence action against ABUTH in %,[18]; dosage 20 g/ha,90%
same,Pre-emergence action against MATIN in %,[19]; dosage 20 g/ha,100%
same,Pre-emergence action against MATIN in %,[19]; dosage 80 g/ha,100%
same,Pre-emergence action against ABUTH (herbicidal activity),[20],100%
same,Pre-emergence action against ABUTH (herbicidal activity in percent),[20],100%
same,Pre-emergence action against SETVI in %,[21]; dosage 20 g/ha,80%
same,Pre-emergence action against SETVI in %,[21]; dosage 80 g/ha,100%
same,Post-emergence action against MATIN in %,[22],80%
